Results from patent US7101886B2, “Phenylalkyl and pyridylalkyl piperazine derivatives” (Warner Lambert Company, priority 2002, dated 2006).

Experiments:
[1] = biological target: T1, dopamine D2 receptor (Homo sapiens, UniProt P14416); test: Dopamine D2 receptor binding ([3H]spiperone radioligand binding); details: [3H]spiperone binding, membrane preparation from CHO-hD2L cells
T1 construct: expressed in transfected cells; host or cells: CHO cells (CHO-hD2L), membrane preparation
Text: (§1) The ability of the compounds of this invention to bind to the dopamine D2 and serotonin 2A (5HT2A) receptors can be determined using conventional radioligand receptor binding assays. All receptors can be heterologously expressed in cell lines and experiments conducted in membrane preparations from the cell lines using procedures outlined below. IC50 concentrations can be determined by nonlinear regression of concentration-dependent reduction in specific binding. The Cheng-Prussoff equation can be used to convert the IC50 to Ki concentrations.
Dopamine D2 Receptor Binding:
[^3H]Spiperone binding to a membrane preparation from CHO-hD2L cells is carried out in 250 μl of 50 mM Tris-HCl buffer containing 100 mM NaCl, 1 mM MgCl2 and 1% DMSO at pH 7.4. Duplicate samples containing (in order of addition) the test compounds, 0.4 nM [^3H]spiperone and approximately 12 μg protein are incubated for 120 minutes at room temperature. Bound radioligand is separated by rapid filtration under reduced pressure through Whatman GF/B glass fiber filters previously treated with 0.3% polyethyleneimine. Radioactivity retained on the filter is determined by liquid scintillation spectrophotometry.
The title compounds of Examples 1–524 were tested using the above assay, in which specific binding determined in the presence of 1 mM haloperidol was 95%.

[2] = biological target: T2, serotonin 2A (5HT2A) receptor (Homo sapiens, UniProt P28223); test: Serotonin 2A binding ([3H]ketanserin radioligand binding); details: [3H]ketanserin binding, Swiss-h5HT2A cell membranes
T2 construct: expressed in transfected cells; host or cells: Swiss cells (Swiss-h5HT2A)
Text: as §1
[^3H] Ketanserin binding to Swiss-h5HT2A cell membranes can be carried out in 250 μl of 50 mM Tris-HCl buffer pH 7.4. Duplicate samples containing (in order of addition) test compounds, 1.0 nM [^3H]ketanserin, and approximately 75 μg protein are incubated for 120 minutes at room temperature. Bound radioligand is separated by rapid filtration under reduced pressure through Whatman GF/B glass fiber filters previously treated with 0.3% polyethyleneimine. Radioactivity retained on the filter is determined by liquid scintillation spectrophotometry.
The title compounds of Examples 1–524 were tested using the above assay, in which specific binding determined in the presence of 1 mM ketanserin was 90%.

T1 sequence (P14416 whole entry): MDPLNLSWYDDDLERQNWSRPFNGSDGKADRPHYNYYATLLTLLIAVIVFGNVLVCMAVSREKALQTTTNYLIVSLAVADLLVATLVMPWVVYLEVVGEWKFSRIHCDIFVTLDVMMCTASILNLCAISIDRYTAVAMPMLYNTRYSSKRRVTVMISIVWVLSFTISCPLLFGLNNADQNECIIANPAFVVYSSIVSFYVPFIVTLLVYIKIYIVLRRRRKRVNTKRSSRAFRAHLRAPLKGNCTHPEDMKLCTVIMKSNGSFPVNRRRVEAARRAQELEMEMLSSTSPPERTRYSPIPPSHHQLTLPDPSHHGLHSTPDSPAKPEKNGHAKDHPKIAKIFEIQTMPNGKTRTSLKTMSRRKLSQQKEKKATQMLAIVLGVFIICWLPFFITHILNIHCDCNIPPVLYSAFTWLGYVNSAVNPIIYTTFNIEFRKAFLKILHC
T2 sequence (P28223 whole entry): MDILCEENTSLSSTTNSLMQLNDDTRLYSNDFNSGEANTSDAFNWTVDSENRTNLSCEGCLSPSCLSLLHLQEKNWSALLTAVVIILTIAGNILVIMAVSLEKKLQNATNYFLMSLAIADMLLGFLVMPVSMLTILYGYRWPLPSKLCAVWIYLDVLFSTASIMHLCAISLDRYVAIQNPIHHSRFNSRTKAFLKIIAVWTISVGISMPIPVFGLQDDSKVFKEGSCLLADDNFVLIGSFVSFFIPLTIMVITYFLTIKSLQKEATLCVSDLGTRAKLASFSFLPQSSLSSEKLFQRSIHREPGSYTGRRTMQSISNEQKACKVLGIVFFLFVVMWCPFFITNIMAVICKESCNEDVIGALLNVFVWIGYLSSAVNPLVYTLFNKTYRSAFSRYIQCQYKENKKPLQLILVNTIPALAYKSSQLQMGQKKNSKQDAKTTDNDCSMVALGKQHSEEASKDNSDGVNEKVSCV

Cc1cc(C(=O)Nc2ccc(CCN3CCN(c4nsc5ccccc45)CC3)cc2)n(C)n1 [Example 102, 2,5-DIMETHYL-2H-PYRAZOLE-3-CARBOXYLIC ACID {4-[2-(4-1,2-BENZISOTHIAZOL-3-YL-PIPERAZIN-1-YL)-ETHYL]-PHENYL}-AMIDE]
Ki [1]: 8.2 nM | Ki [2]: 0.25 nM

COc1ccc(OC)c(S(=O)(=O)Nc2ccc(OCCN3CCN(c4nsc5ccccc45)CC3)cc2)c1 [Example 46, N-{4-[2-(4-1,2-BENZISOTHIAZOL-3-YL-PIPERAZIN-1-YL)-ETHOXY]-PHENYL}-2,5-DIMETHOXY-BENZENESULFONAMIDE]
melting point: 78 °C

CC(=O)OC(C)C(=O)Nc1ccc(OCCN2CCN(c3nsc4ccccc34)CC2)cc1 (centres unmarked)
melting point: 90 °C

COc1cc(CCN2CCN(c3nsc4ccccc34)CC2)c(NC(=O)Nc2ccc(F)cc2)cc1OC [Example 62, 1-{2-[2-(4-1,2-BENZISOTHIAZOL-3-YL-PIPERAZIN-1-YL)-ETHYL]-4,5-DIMETHOXY-PHENYL}-3-(4-FLUORO-PHENYL)-UREA]
melting point: 211 °C

O=C1c2ccccc2CN1c1ccc(CCN2CCN(c3nsc4ccccc34)CC2)cc1 [Example 527, 2-{4-[2-(4-BENZO[D]ISOTHIAZOL-3-YL-PIPERAZIN-1-YL)-ETHYL]-PHENYL}-2,3-DIHYDRO-ISOINDOL-1-ONE]
melting point: 175.9 °C

O=C(Cc1cccs1)Nc1ccc(OCCN2CCN(c3nsc4ccccc34)CC2)cc1
melting point: 142 °C

COc1cc(CCN2CCN(c3nsc4ccccc34)CC2)c(NS(=O)(=O)c2c(C)nn(C)c2C)cc1OC
melting point: 196 °C

O=S(=O)(Nc1ccc(OCCN2CCN(c3nsc4ccccc34)CC2)cc1)c1ccccc1 [Example 47, N-{4-[2-(4-1,2-BENZISOTHIAZOL-3-YL-PIPERAZIN-1-YL)-ETHOXY]-PHENYL}-BENZENESULFONAMIDE]
melting point: 65 °C

O=C1c2ccccc2CN1c1ccc(OCCN2CCN(c3nsc4ccccc34)CC2)cc1 [Example 530, 2-{4-[2-(4-BENZO[D]ISOTHIAZOL-3-YL-PIPERAZIN-1-YL)-ETHOXY]-PHENYL}-2,3-DIHYDRO-ISOINDOL-1-ONE]
melting point: 166.4 to 166.6 °C

COc1cc(CCN2CCN(c3nsc4ccccc34)CC2)c(NC(C)=O)cc1OC
melting point: 120 °C

O=C1c2ccccc2CN1c1ccccc1CCN1CCN(c2nsc3ccccc23)CC1 [Example 529, 2-{2-[2-(4-BENZO[D]ISOTHIAZOL-3-YL-PIPERAZIN-1-YL)-ETHYL]-PHENYL}-2,3-DIHYDRO-ISOINDOL-1-ONE]
melting point: 207.6 to 208 °C

COc1cc(CCN2CCN(c3nsc4ccccc34)CC2)c(NC(=O)Cc2ccccc2)cc1OC
melting point: 142 °C

Cn1cnc(S(=O)(=O)Nc2ccc(OCCN3CCN(c4nsc5ccccc45)CC3)cc2)c1 [Example 44, 1-METHYL-1H-IMIDAZOLE-4-SULFONIC ACID {4-[2-(4-1,2-BENZISOTHIAZOL-3-YL-PIPERAZIN-1-YL)-ETHOXY]-PHENYL}-AMIDE]
melting point: 176 °C

O=C1c2ccccc2CN1c1cccc(CCN2CCN(c3nsc4ccccc34)CC2)c1 [Example 528, 2-{3-[2-(4-BENZO[D]ISOTHIAZOL-3-YL-PIPERAZIN-1-YL)-ETHYL]-PHENYL}-2,3-DIHYDRO-ISOINDOL-1-ONE]
melting point: 154.5 to 155.3 °C

COc1cc(CCN2CCN(c3nsc4ccccc34)CC2)c(NS(=O)(=O)c2ccccc2F)cc1OC [Example 56, N-{2-[2-(4-1,2-BENZISOTHIAZOL-3-YL-PIPERAZIN-1-YL)-ETHYL]-4,5-DIMETHOXY-PHENYL}-2-FLUORO-BENZENESULFONAMIDE]
melting point: 167 °C

Cc1nn(C)c(Cl)c1S(=O)(=O)Nc1ccc(OCCN2CCN(c3nsc4ccccc34)CC2)cc1
melting point: 85 °C

COc1cc(CCN2CCN(c3nsc4ccccc34)CC2)c(NS(=O)(=O)c2cn(C)c(C)n2)cc1OC
melting point: 233 °C

Cc1nc(S(=O)(=O)Nc2ccc(OCCN3CCN(c4nsc5ccccc45)CC3)cc2)cn1C
melting point: 227 °C

CC(=O)Nc1ccc(S(=O)(=O)Nc2ccc(OCCN3CCN(c4nsc5ccccc45)CC3)cc2)cc1
melting point: 120 °C

COc1cc(CCN2CCN(c3nsc4ccccc34)CC2)c(NC(=O)Cc2ccc(Cl)cc2)cc1OC
melting point: 152 °C

COc1cc(CCN2CCN(c3nsc4ccccc34)CC2)c(NC(=O)Cc2cccs2)cc1OC
melting point: 135 °C

COc1cc(CCN2CCN(c3nsc4ccccc34)CC2)c(NC(=O)Nc2c(C)cccc2C)cc1OC
melting point: 96 °C

CC(C)=CC(=O)Nc1ccc(F)cc1CCN1CCN(c2nsc3ccccc23)CC1 [Example 64, 3-METHYL-BUT-2-ENOIC ACID {2-[2-(4-1,2-BENZISOTHIAZOL-3-YL-PIPERAZIN-1-YL)-ETHYL]-4-FLUORO-PHENYL}-AMIDE]
melting point: 175 °C

COc1cc(CCN2CCN(c3nsc4ccccc34)CC2)c(NC(=O)NC2CCCCC2)cc1OC [Example 63, 1-{2-[2-(4-1,2-BENZISOTHIAZOL-3-YL-PIPERAZIN-1-YL)-ETHYL]-4,5-DIMETHOXY-PHENYL}-3-CYCLOHEXYL-UREA]
melting point: 156 °C

COc1cc(CCN2CCN(c3nsc4ccccc34)CC2)c(NS(=O)(=O)c2ccccc2C)cc1OC [Example 58, N-{2-[2-(4-1,2-BENZISOTHIAZOL-3-YL-PIPERAZIN-1-YL)-ETHYL]-4,5-DIMETHOXY-PHENYL}-2-METHYL-BENZENESULFONAMIDE]
melting point: 187 °C

COc1cc(CCN2CCN(c3nsc4ccccc34)CC2)c(NC(=O)C=C(C)C)cc1OC [Example 65, 3-M ETHYL-BUT-2-ENOIC ACID {2-[2-(4-1,2-BENZISOTHIAZOL-3-YL-PIPERAZIN-1-YL)-ETHYL]-4,5-DIMETHOXY-PHENYL}-AMIDE]
melting point: 58 °C

Cc1cc(C(=O)Nc2ccc(CCN3CCN(c4nsc5ccccc45)CC3)cc2)c(C)o1 [Example 27, 2,5-DIMETHYL-FURAN-3-CARBOXYLIC ACID {4-[2-(4-1,2-BENZISOTHIAZOL-3-YL-PIPERAZIN-1-YL)-ETHYL]-PHENYL}-AMIDE]
Ki [1]: 6.32 nM | Ki [2]: 1.46 nM

COc1cccc(S(=O)(=O)Nc2ccc(CCN3CCN(c4nsc5ccccc45)CC3)cc2)c1 [Example 364, N-{4-[2-(4-1,2-BENZISOTHIAZOL-3-YL-PIPERAZIN-1-YL)-ETHYL]-PHENYL}-3-METHOXY-BENZENESULFONAMIDE]
Ki [1]: 8.58 nM | Ki [2]: 0.29 nM

CC(C)=CC(=O)Nc1ccccc1CCN1CCN(c2nsc3ccccc23)CC1 [Example 50, 3-METHYL-BUT-2-ENOIC ACID {2-[2-(4-1,2-BENZISOTHIAZOL-3-YL-PIPERAZIN-1-YL)-ETHYL]-PHENYL}-AMIDE]
melting point: 52 °C
